Test results: patent publication US11879137B2, “Treatment of type 1 diabetes and autoimmune diseases or disorders” (THE CHILDREN'S MEDICAL CENTER CORPORATION, priority 2017, dated 2024)

Legend:
[1] = system: PD-L1 on CD34+ cells; test: Prostaglandin library screening and FACS of PD-L1 on human CD34+ cells; type: cell-based; conditions: for capacity to upregulate PD-L1 (MFI) in library screening: 10 μM, CD34+ cells from T1D patients; for PD-L1 expression by FACS analysis: CD34+ cells, 10 μM pulsed at 24 and 48 hours
Excerpt: FIGS. 17A-17J show prostaglandins enhance PD-L1 expression on human CD34^+ cells. (FIG. 17A-17B) Results of screening of a prostaglandin small molecule library tested for the ability to upregulate PD-L1 (MFI) on CD34^+ cells obtained from T1D patients. The schematic of the experimental design is shown in (A). The 3-color coding shown in (FIG. 17B) represents lowest PD-L1 MFI values (blue), median PD-L1 MFI values (pink) and highest PD-L1 MFI values (red). (FIG. 17C-17D) Representative flow cytometric analysis and quantitative bar graph of PD-L1 expression on CD34^+ cells from T1D patients pre- and post-pharmacologic modulation with PGE2 as compared to CD34^+ cells obtained from healthy controls. (FIG. 17E) PD-L1 and CXCR4 expression (mRNA) fold change was quantified for CD34^+ cells pre- and post-modulation with PGE2. (FIG. 17F) Migration assay using CD34^+ cells pre- and post-modulation with PGE2. (FIG. 17G) Confocal imaging of CD34^+ cells pre- and post-modulation with PGE2, showing DAPI (in blue) and PD-L1 (in green) staining. 63× magnification. Scale bar, 50 (FIG. 17H) IDO-1 expression (mRNA) fold change was quantified for CD34^+ cells pre- and post-modulation with PGE2. (FIG. 17I-17J) Representative flow cytometric analysis (FIG. 17I) and quantitative bar graph (FIG. 17J) of PD-L1 expression on CD34^+ cells from T1D patients pre- and post-pharmacologic modulation with 4 small molecule PGE2 agonists. All data are expressed as mean±SEM. *P<0.05, **P<0.001. Abbreviations: MFI, mean fluorescence intensity.
Pharmacological modulation of human CD34+ cells. 1×105 of isolated human CD34+ HSPCs (purity 99%) were cultured in 200 μl of StemSpan SFEM II media (SEMCELL Technologies Inc., Cambridge, MA, USA), and each compound in the Prostaglandin Screening Library II (Cayman Chemicals, Ann Arbor, MI), was added individually at day 0 and at day 1 at a concentration of 10 μM as previously reported by the inventors and others (9, 21). In another assay, isolated CD34+ cells from freshly isolated human PBMCs or from cryopreserved PBMCs, and processed as described earlier, were cultured in the presence of a cocktail of cytokines containing: 10 μg/ml heparin (SEMCELL Technologies Inc., Cambridge, MA, USA), 10 ng/ml human SCF (Miltenyi Biotec, San Diego, CA), 20 ng/ml human TPO (Miltenyi Biotec, San Diego, CA), 10 ng/ml human FGF-1 (Miltenyi Biotec, San Diego, CA), 100 ng/ml IGFBP2 (R&D Systems, Inc., Minneapolis, MN), and 500 ng/ml Angptl3 (R&D Systems, Inc., Minneapolis, MN). PGE2 (PromoKine, PromoCell Gmbh, Germany) was added by pulsing the culture at 0, 24h, 72h and 6 days with 2 μl of diluted PGE2 (10 μM). Cells were cultured for 7 days at 37° C. in 5% CO2, and CD34+ cells were then subjected to FACS analysis and were run on a FACSCelesta™ (Becton Dickinson, Franklin Lakes, NJ). Data were analyzed using FlowJo software version 8.7.3 (Treestar, Ashland, OR). The different cytokines used here and their related concentration as well as the choice of the incubation timing was used as previously reported in the literature (22).
Prostaglandin library screening. PGE2 has been described as a small molecule known to enhance the homing and engraftment of HSPCs. It was therefore sought to screen all known types of prostaglandins using the Prostaglandin Screening Library II, which contains 64 small molecules. Each small molecule contained in the library was first screened for its capacity to upregulate PD-L1 in human CD34+ cells isolated from T1D patients (FIG. 17A-17B). CD34+ cells isolated from T1D patients were cultured in StemSpan SFEMII and pulsed with each PG (prostaglandin) small molecule contained in the aforementioned library at a concentration of 10 μM at 24 and 48h. Using FACS analysis, the MFI (mean fluorescence intensity) of PD-L1 expression was calculated following treatment with each small molecule used to modulate CD34+ cells as compared to untreated/unmodulated CD34+ cells (FIG. 17B). […]

[2] = system: NEU1, MTOR, MYC, IGF1R, VEGFA, RB1 in MDA-MB-231 cells; test: mRNA of validated miRNA target genes (transfection control) in MDA-MB-231 cells; type: cell-based, human; conditions: VEGFA or RB1 as named for each agent, 48 h after transfection
Description: MDA-MB-231 breast cancer cells were cultured in DMEM high glucose medium (Gibco, Thermo Fisher Scientific; Waltham, MA USA) supplemented with 10% heat-inactivated fetal calf serum (Gibco, Thermo Fisher Scientific), 100 units/ml penicillin, 100 μg/ml streptomycin, and 2 mM L-glutamine. 2×10^5 cells were seeded in each well of a 6-well plate and transfected with 10 pmol of the miRNA mimic or miRNA mimic negative control, or 100 pmol of the anti-miR or anti-miR negative control (all from Exiqon, Qiagen) using the Lipofectamine RNAiMAX transfection reagent (Invitrogen, Thermo Fisher Scientific) in a final culture medium volume of 2 ml, following manufacturer's instructions. […] Forty-eight hours after transfection, cells were collected from each well for RNA extraction, cell lysate preparation and FACS analysis. RNA was extracted using Direct-zol RNA miniprep plus (Zymo research, Irvine, CA, USA) and RNA quality was checked and then retro-transcribed using RETROscript® Kit (Fisher Scientific) following manufacturer's instructions. Cell lysates were obtained in RIPA buffer (50 mmol/1 Tris-HCl, pH 8.0, 1% Triton-x, 0.5% sodium deoxycholate, 0.1% SDS, 150 mmol/1 sodium chloride) with protease inhibitor cocktail (Roche).
qRT-PCR for PD-L1 analysis was performed on retro-transcribed cDNA using SYBR® Green dye (Life Technologies, Thermo Fisher Scientific). Amplification was performed on a QuantStudio S6 Real Time PCR system (Thermo Fisher Scientific). To confirm a successful transfection, the mRNA level of genes known to be controlled by the targeted miRNAs were evaluated by SYBR® Green dye (Life Technologies, Thermo Fisher Scientific) according to the manufacturer's instructions. Normalized expression values were determined using the ΔΔCt method in treated as compared to negative treated samples, using GAPDH mRNA as endogenous reference. The miRNA-targeted genes tested, along with forward and reverse primer sequences used for their amplification, are listed in Table 13.
To determine if targeting the miRNA network decreases PD-L1 expression in human cancer setting, PD-L1-expressing MDA-MB-231 human breast cancer cells were transfected with a set of miRNA mimics or anti-miRs to either increase or decrease the function of a set of miRNAs not previously known to affect PD-L1 (miR-125b, miR-99a, miR-744, mir-599, miR-511, miR-206, miR-26b). The effect of treatment with miRNA mimics and anti-miRs on the percentage of PD-L1-expressing cells, as well as on PD-L1 mRNA and protein levels, was investigated. miRNA mimic/anti-miR treated-cells were compared to corresponding mimic/anti-miR negative control-treated cells by flow cytometric analysis, Real Time PCR and western blot to assess percentage of PD-L1-expressing cells, PD-L1 mRNA, and PD-L1 protein levels, respectively. A successful miRNA mimic/anti-miR transfection was confirmed by the detection of changed mRNA levels of the validated miRNA targets NEU1 (for miR-125b mimic), MTOR (for miR-99a mimic), MYC (for miR-744 mimic and miR-599 anti-miR), IGF1R (for miR-511 mimic), VEGFA (for miR-206 anti-miR) and RB1 (for miR-26b anti-miR) in treated cells (FIG. 22A). […] Lysates of miR-511 mimic and miR-206 anti-miR treated cells were not available for western blot analysis.

[3] = system: CD34+ cells; test: qRT-PCR of PD-L1, CXCR4 and IDO-1 in prostaglandin-modulated CD34+ cells; type: cell-based, human; conditions: CD34+ cells upon modulation
Description: qRT-PCR. RNA was extracted from CD34+ cells using Direct-Zol™ RNA Kits (Zymo, Irvine, CA, USA) and Trizol Reagent (Invitrogen Carlsbad, CA), RNA quality was assessed by Multiskan™ GO Microplate spectrophotometer and the ratios of absorbance at 260 nm and 280 nm were assessed for all the samples. Only samples with RNA ratios within 1.9 were included in the present study. cDNA synthesis was made from purified total RNA by reverse transcription using High capacity cDNA Reverse Transcription RETROscript® Kit (Thermo Fisher Scientific, Waltham, MA, USA) followed by a pre-amplification using Taqman PreAmp Kit (Applied Biosystems) according to the manufacturer's instructions. qRT-PCR analysis was performed using TaqMan assays (Life Technologies, Grand Island, NY) containing PCR primers and TaqMan probes according to the manufacturer's instructions. Normalized expression values were determined using the ΔCt method. Quantitative reverse transcriptase polymerase chain reaction (qRT-PCR) data were normalized for the expression of GAPDH. qRT-PCR reactions were performed in triplicate in a 96-well format using an Applied Biosystems 7900HT fast real-time PCR instrument. Relative expression was calculated using the comparative threshold cycle method as previously described (23, 24). For two-group comparisons, a Student's t test was employed. Reported below are the main characteristics of the primers used: […]
Prostaglandin library screening. PGE2 has been described as a small molecule known to enhance the homing and engraftment of HSPCs. It was therefore sought to screen all known types of prostaglandins using the Prostaglandin Screening Library II, which contains 64 small molecules. Each small molecule contained in the library was first screened for its capacity to upregulate PD-L1 in human CD34+ cells isolated from T1D patients (FIG. 17A-17B). CD34+ cells isolated from T1D patients were cultured in StemSpan SFEMII and pulsed with each PG (prostaglandin) small molecule contained in the aforementioned library at a concentration of 10 μM at 24 and 48h. Using FACS analysis, the MFI (mean fluorescence intensity) of PD-L1 expression was calculated following treatment with each small molecule used to modulate CD34+ cells as compared to untreated/unmodulated CD34+ cells (FIG. 17B). A heat map was generated depicting the degree to which each PG small molecule affected PD-L1 expression on CD34+ cells (FIG. 17B), thus allowing for the evaluation of PG candidates. Based on its ability to modulate PD-L1 expression, PGE2 was selected as a candidate for further study; in addition, PGE2 has been described in the literature and has been tested in clinical trials as a potential therapy for enhancing HSPC engraftment following cord blood transplantation (21). Isolated CD34+ cells from healthy control patients (CTRL) and from T1D patients were cultured in StemSpan SFEMII and pulsed with 10 μM of PGE2 at 24 hours and 48 hours. […] It was therefore sought to perform a migration assay in order to assess the homing properties of PGE2-treated CD34+ cells (FIG. 17F).

CCCCC[C@H](O)/C=C/[C@H]1[C@H](O)CC(=O)[C@@H]1CC(=O)CCCCC(=O)O [6-keto PGE1]
capacity to upregulate PD-L1 (MFI) in library screening [1]: strongest capacity | PD-L1 expression by FACS analysis [1]: robust upregulation

miR-99a mimic: miRNA mimic, AACCCGUAGAUCCGAUCUUGUG, SEQ ID NO: 3 (listed as RNA, chemistry not given here)
mRNA levels of the validated miRNA target [2]: changed

miR-744 mimic: miRNA mimic, CUGUUGCCACUAACCUCAACCU, SEQ ID NO: 4 (listed as RNA, chemistry not given here)
mRNA levels of the validated miRNA target [2]: changed

CCCCCCC[C@H](O)/C=C/[C@H]1[C@H](O)CC(=O)[C@@H]1C/C=C\CCCC(=O)O [20-ethyl PGE2]
PD-L1 mRNA expression by RT-PCR [3]: marked upregulation | capacity to upregulate PD-L1 (MFI) in library screening [1]: strongest capacity | PD-L1 expression by FACS analysis [1]: robust upregulation

CCCCC(C)(C)[C@H](O)/C=C/[C@H]1[C@H](O)CC(=O)[C@@H]1C/C=C\CCCC(=O)Oc1ccc(NC(=O)c2ccc(NC(C)=O)cc2)cc1 [16,16-dimethyl PGE2 4-(4-acetamidobenzamido) phenyl ester]
PD-L1 mRNA expression by RT-PCR [3]: marked upregulation | capacity to upregulate PD-L1 (MFI) in library screening [1]: strongest capacity | PD-L1 expression by FACS analysis [1]: robust upregulation

miR-206 anti-miR: Anti-miR, CACACACUUCCUUACAUUCC, SEQ ID NO: 7 (listed as RNA, chemistry not given here)
mRNA levels of the validated miRNA target [2]: changed

miR-511 mimic: miRNA mimic, AAUGUGUAGCAAAAGACAGA, SEQ ID NO: 2 (listed as RNA, chemistry not given here)
mRNA levels of the validated miRNA target [2]: changed

miR-26b anti-miR: Anti-miR, CUAUCCUGAAUUACUUGA, SEQ ID NO: 8 (listed as RNA, chemistry not given here)
mRNA levels of the validated miRNA target [2]: changed
